Assay results reported in patent publication US20260001847A1, “HERBICIDAL QUINOLONE DERIVATIVES” (SYNGENTA CROP PROTECTION AG, priority 2022, published 2026).

Experiments:
Assay type in all cases: in vivo
Settings in all cases: 1000 g/ha, evaluated after 13 days
[1] = system: Abutilon theophrasti (ABUTH); experiment: Pre-emergence Test
[2] = system: Ipomoea hederacea (IPOHE); experiment: Pre-emergence Test
Setaria faberi (SETFA) [3] = experiment: Pre-emergence Test
[4] = system: Echinochloa crus-galli (ECHCG); experiment: Pre-emergence Test
Zea mays (ZEAMX) [5] = experiment: Pre-emergence Test
[6] = system: Amaranthus retoflexus (AMARE); experiment: Pre-emergence Test
Solanum nigrum (SOLNI) [7] = experiment: Pre-emergence Test
Lolium perenne (LOLPE) [8] = experiment: Pre-emergence Test
[9] = system: Abutilon theophrasti (ABUTH); experiment: Post-emergence Test
Protocol: (§1) Seeds of a variety of test species are sown in standard soil in pots (Abutilon theophrasti (ABUTH), Ipomoea hederacea (IPOHE). Setaria faberi (SETFA), Echinochloa crus-galli (ECHCG), Zea mays (ZEAMX), Amaranthus retoflexus (AMARE), Solanum nigrum (SOLNI), Lolium perenne (LOLPE), Amaranthus palmeri (AMAPA)). After 8 days cultivation under controlled conditions in a glasshouse (at 24° C./16° C., day/night-; 14 hours light; 65% humidity), the plants are sprayed with an aqueous spray solution derived from the formulation of the technical active ingredient in acetone/water (50:50) solution containing 0.5% Tween 20 (polyoxyethylene sorbitan monolaurate, CAS RN 9005-64-5). Compounds are applied at 1000 g/ha unless otherwise stated. The test plants are then grown in a glasshouse under controlled conditions in a glasshouse (at 24° C./16° C., day/night; 14 hours light; 65% humidity) and watered twice daily. After 13 days the test is evaluated for the percentage damage caused to the plant. The biological activities are shown in the following table on a five-point scale (5=81-100%; 4=61-80%; 3=41-60%; 2=21-40%; 1=0-20%; -=not tested).

[10] = system: Amaranthus retoflexus (AMARE); experiment: Post-emergence Test
Protocol: as §1

[11] = system: Echinochloa crus-galli (ECHCG); experiment: Post-emergence Test
Protocol: as §1

[12] = system: Ipomoea hederacea (IPOHE); experiment: Post-emergence Test
Protocol: as §1

Lolium perenne (LOLPE) [13] = experiment: Post-emergence Test
Protocol: as §1

Setaria faberi (SETFA) [14] = experiment: Post-emergence Test
Protocol: as §1

Solanum nigrum (SOLNI) [15] = experiment: Post-emergence Test
Protocol: as §1

Zea mays (ZEAMX) [16] = experiment: Post-emergence Test
Protocol: as §1

SMILES: CCn1c(-c2ccc(Cl)c(Cl)c2)c(C(=O)O)c(=O)c2ccccc21 [Compound 3, 2-(3,4-dichlorophenyl)-1-ethyl-4-oxo-quinoline-3-carboxylic acid]
- percentage damage caused to the plant, ABUTH [1]: 1 (1=0-20%)
- percentage damage caused to the plant, IPOHE [2]: 3 (3=41-60%)
- percentage damage caused to the plant, SETFA (Setaria faberi (SETFA) [3]): 5 (5=81-100%)
- percentage damage caused to the plant, ECHCG [4]: 5 (5=81-100%)
- percentage damage caused to the plant, ZEAMX (Zea mays (ZEAMX) [5]): 3 (3=41-60%)
- percentage damage caused to the plant, AMARE [6]: 2 (2=21-40%)
- percentage damage caused to the plant, SOLNI (Solanum nigrum (SOLNI) [7]): 4 (4=61-80%)
- percentage damage caused to the plant, LOLPE (Lolium perenne (LOLPE) [8]): 3 (3=41-60%)
- percentage damage caused to the plant, ABUTH [9]: 2 (2=21-40%)
- percentage damage caused to the plant, AMARE [10]: 3 (3=41-60%)
- percentage damage caused to the plant, ECHCG [11]: 3 (3=41-60%)
- percentage damage caused to the plant, IPOHE [12]: 4 (4=61-80%)
- percentage damage caused to the plant, LOLPE (Lolium perenne (LOLPE) [13]): 2 (2=21-40%)
- percentage damage caused to the plant, SETFA (Setaria faberi (SETFA) [14]): 4 (4=61-80%)
- percentage damage caused to the plant, SOLNI (Solanum nigrum (SOLNI) [15]): 4 (4=61-80%)
- percentage damage caused to the plant, ZEAMX (Zea mays (ZEAMX) [16]): 1 (1=0-20%)
